In patent publication US20040092571A1, “Pharmaceutical composition” (SANKYO COMPANY, LIMITED, priority 2000, published 2004):
Where a name gives a salt, the structure may show the parent alone.

Experiments:
F1b hamsters = experiment: Lipid lowering action in cholesterol/coconut oil-fed F1b hamsters (serum lipids by an enzyme method); type: in vivo, hamster; settings: for Cholesterol concentration TC (total cholesterol) / Atherogenic index (VLDL+LDL cholesterol/HDL cholesterol) / Cholesterol concentration HDL / Cholesterol concentration VLDL + LDL: serum, oral once a day for 7 days, Pravastatin 3 mg/kg, Compound A 30 mg/kg; for Cholesterol concentration TC (total cholesterol): 17 h fast after final dose, control 253.0; for Atherogenic index (VLDL+LDL cholesterol/HDL cholesterol): control 3.0; for Cholesterol concentration HDL: control 63.6; for Cholesterol concentration VLDL + LDL: control 189.4
Procedure: Eleven-week-old male F1b hamsters were used in the experiment. The animals were fed in metal cages and allowed free access to food, which contained 0.05% cholesterol and 10% coconut oil, and water. The active agents were administered orally in the form of a suspension in 5% gum arabic solution once a day for 7 days. The animals were fasted for 17 hours after the final administration of active agents at which time blood samples were collected under anesthesia. Serum lipids were measured by an enzyme method. In the table, TC indicates total cholesterol, VLDL indicates very low density lipoprotein, LDL indicates low density lipoprotein, HDL indicates high density lipoprotein and compound A indicates N-(1-octyl-5-carboxymethyl-4,6-dimethylindolin-7-yl)-2,2-dimethylpropanamide sulfate.

cholesterol-fed rabbits = experiment: Effect on the development of atherosclerotic lesion in cholesterol-fed rabbits with chronic endothelial injury; type: in vivo, New Zealand White rabbits; settings: for Effect on ECD (in words) / Effect on atheroclerotic area of the femoral lesion (in words): Table 2; for The ratio of Atheroclerotic area: femoral artery, oral for 8 weeks after surgery, control 57.4; for The ratio of Atheroclerotic area / ECD (extracellular lipid deposits): Pravastatin 10 mg/kg, Compound A 5 mg/kg; for ECD (extracellular lipid deposits): right femoral artery sections, Elastica-Masson's stain, oral for 8 weeks, control 15.5
Excerpt: Male New Zealand White rabbits (Kitayama Labes, Japan) weighing 1.0-1.5 kg were meal-fed a chow diet (RC-4, Oriental Bioservice, Japan) supplemented with 0.5% cholesterol, 3% peanut oil, and 3% coconut oil diet for a total of 10 weeks.
The dietary regimen consisted of feeding the cholesterol/fat diet at 40 g for the first 2 weeks, 50 g for 4 weeks, 60 g for final 4 weeks. After 2 week of diet initiation, a chronic endothelial injury was induced in the abdominal aorta and right femoral artery by surgically inserting a sterile, nylon monofilament through the medical saphenous artery of the right leg to the level of the diaphragm. The monofilament was secured and maintained in place for remaining 8 weeks of the study. Animals were randomized on the basis of their total cholesterol levels after 2 week of cholesterol/fat diet. The HMG-CoA reductase inhibitor and the ACAT inhibitor were orally administered both alone and in combination for 8 weeks after surgery.
Femoral artery was photographed for the morphometric analyses by digital camera (Coolpix 990, trade name: product of […].) connected with a computer. The severity of aortic atherosclerosis was estimated as a ratio of surface area of lesion to the intimal surface area of aorta by Photo-retouch software (“Adobe Photoshop 5.0” trade name: product of Adobe Systems Inc.) and the Scion image NIH Imaging Software (“Scion Image 1.61 c MacOs” product of Scion Corporation). (ii) Extracellular Lipid Deposits
Rabbits were anesthetized with intravenous injection of sodium pentobarbital (25 mg/kg) and perfused with saline by using a perfusion apparatus at a constant pressure of 100 mmHg. After perfusion, the aortas were excised, photographed. Analysis of lesional cross-sections on aortas was examined at the right femoral artery. Right femoral artery was fixed in Methanol Carnoy's fixative for at least 24 hours. The segments were embedded in paraffin, and sectioned at 5 μm. Five ribbons of four serilal sections from each segment were cut at 80 μm intervals. A section from each ribbon was treated with Elastica-Masson's stain.
Digital image of each section was collected using a digital camera (Fujix CCD camera system HC-2500: product of Fuji Photo Film Co., Ltd.) attached to Leica microscope at a magnification of 2.5×. The area of each lesional component was extracted using Adobe Photoshop 5.0 (Adobe) for estimation of the quality of the lesions. In sections treated with Elastica-Masson's stain, the region with light green were identified as extracellular matrix (ECM), and extracellular vacuoles and lacunae (white regions) were defined as extracellular lipid deposits (ECD). ECD was measured by average of value dividing area of lesional component by area of lesion using Adobe Photoshop 5.0 and Scion Image 1.61 MacOs.

SMILES	Cholesterol concentration TC (total cholesterol) (F1b hamsters)	Atherogenic index (VLDL+LDL cholesterol/HDL cholesterol) (F1b hamsters)	Cholesterol concentration HDL (F1b hamsters)	Cholesterol concentration VLDL + LDL (F1b hamsters)	Effect on ECD (in words) (cholesterol-fed rabbits)	Effect on atheroclerotic area of the femoral lesion (in words) (cholesterol-fed rabbits)	The ratio of Atheroclerotic area (cholesterol-fed rabbits)	ECD (extracellular lipid deposits) (cholesterol-fed rabbits)	Effect on atherogenic index (in words) (F1b hamsters; summary of Table 1)	Effect on serum VLDL+LDL cholesterol level (in words) (F1b hamsters; summary of Table 1)	Effect on total serum cholesterol level (in words) (F1b hamsters; summary of Table 1)
CC[C@H](C)C(=O)O[C@H]1C[C@H](O)C=C2C=C[C@H](C)[C@H](CC[C@@H](O)C[C@@H](O)CC(=O)O)[C@H]21 [Pravastatin, (+)-(3R,5R)-3,5-dihydroxy-7-[(1S,2S,6S,8S,8aR)-6-hydroxy-2-methyl-8-[(S)-2-methylbutyryloxy]-1,2,6,7,8,8a-hexahydro-1-napthyl]heptanoic acid, reference compound]	244.0	2.3	73.3	170.6	no effect	no effect	58.3%	16.6 mm^2			
CCCCCCCCN1CCc2c(C)c(CC(=O)O)c(C)c(NC(=O)C(C)(C)C)c21 [Compound A, N-(1-octyl-5-carboxymethyl-4,6-dimethylindolin-7-yl)-2,2-dimethylpropanamide sulfate]	170.9	1.8	62.0	109.0	reduced	reduced	45.8%	10.7 mm^2	lowered	decreased	decreased
